Results published in the NIST ThermoML archive (doi:10.1021/je060353z).

Assay: xn = mol fraction of the nth substance listed
Conditions: 101 kPa, Liquid

Clc1ccccc1 [chlorobenzene] + CCCCCCCCCCO
Conditions | mass density [kg/m3] | speed of sound [m/s] | viscosity [mPa·s]
298.15 K, x1 = 0.1664 | 852.913 | 1362.6 | 7.762
298.15 K, x1 = 0.322 | 881.587 | 1344.4 | 5.123
298.15 K, x1 = 0.4609 | 911.692 | 1327 | 3.484
298.15 K, x1 = 0.5731 | 939.879 | 1311.7 | 2.539
298.15 K, x1 = 0.6619 | 965.236 | 1299.5 | 1.967
298.15 K, x1 = 0.7456 | 992.108 | 1288.5 | 1.517
298.15 K, x1 = 0.8174 | 1017.95 | 1280.1 | 1.243
298.15 K, x1 = 0.8857 | 1045.67 | 1273.3 | 1.017
298.15 K, x1 = 0.9426 | 1071.48 | 1269.5 | 0.865
298.15 K, x1 = 1 | 1100.67 | 1268 | 0.757
303.15 K, x1 = 0.1664 | 848.821 | 1343.9 | 6.542
303.15 K, x1 = 0.322 | 877.329 | 1325 | 4.407
303.15 K, x1 = 0.4609 | 907.247 | 1307.2 | 3.058
303.15 K, x1 = 0.5731 | 935.236 | 1292.4 | 2.262
303.15 K, x1 = 0.6619 | 960.447 | 1280.9 | 1.771
303.15 K, x1 = 0.7456 | 987.138 | 1270.5 | 1.388
303.15 K, x1 = 0.8174 | 1012.83 | 1262.6 | 1.147
303.15 K, x1 = 0.8857 | 1040.32 | 1256.1 | 0.949
303.15 K, x1 = 0.9426 | 1065.89 | 1252.2 | 0.808
303.15 K, x1 = 1 | 1095.1 | 1249.4 | 0.714
308.15 K, x1 = 0.1664 | 845.166 | 1326 | 5.554
308.15 K, x1 = 0.322 | 873.388 | 1306.4 | 3.814
308.15 K, x1 = 0.4609 | 903.044 | 1288.1 | 2.695
308.15 K, x1 = 0.5731 | 930.8 | 1272.9 | 2.021
308.15 K, x1 = 0.6619 | 955.749 | 1260.8 | 1.597
308.15 K, x1 = 0.7456 | 982.146 | 1249.5 | 1.273
308.15 K, x1 = 0.8174 | 1007.56 | 1240.8 | 1.045
308.15 K, x1 = 0.8857 | 1034.75 | 1234.6 | 0.868
308.15 K, x1 = 0.9426 | 1060.08 | 1231 | 0.756
308.15 K, x1 = 1 | 1089.08 | 1230.9 | 0.677
313.15 K, x1 = 0.1664 | 841.509 | 1308.6 | 4.751
313.15 K, x1 = 0.322 | 869.536 | 1288.1 | 3.323
313.15 K, x1 = 0.4609 | 898.972 | 1269.1 | 2.388
313.15 K, x1 = 0.5731 | 926.509 | 1253.3 | 1.816
313.15 K, x1 = 0.6619 | 951.271 | 1241.1 | 1.454
313.15 K, x1 = 0.7456 | 977.488 | 1230.1 | 1.156
313.15 K, x1 = 0.8174 | 1002.68 | 1222.1 | 0.968
313.15 K, x1 = 0.8857 | 1029.64 | 1216.5 | 0.809
313.15 K, x1 = 0.9426 | 1054.84 | 1213.4 | 0.702
313.15 K, x1 = 1 | 1083.66 | 1212.6 | 0.617

Clc1ccccc1 [chlorobenzene] + CCCCCCCCCO
x1 = 1
Conditions | mass density [kg/m3] | speed of sound [m/s] | viscosity [mPa·s]
298.15 K | 1100.67 | 1268 | 0.757
303.15 K | 1095.1 | 1249.4 | 0.714
308.15 K | 1089.08 | 1230.9 | 0.677
313.15 K | 1083.66 | 1212.6 | 0.617

Clc1ccccc1 [chlorobenzene] + CCCCCCCCO
Conditions | mass density [kg/m3] | speed of sound [m/s] | viscosity [mPa·s]
298.15 K, x1 = 0.1423 | 848.715 | 1334.1 | 5.448
298.15 K, x1 = 0.2807 | 877.644 | 1319.1 | 3.87
298.15 K, x1 = 0.4121 | 908.104 | 1303.7 | 2.788
298.15 K, x1 = 0.5237 | 936.698 | 1291.1 | 2.116
298.15 K, x1 = 0.6158 | 962.489 | 1281.2 | 1.692
298.15 K, x1 = 0.7073 | 990.466 | 1272.7 | 1.363
298.15 K, x1 = 0.7885 | 1017.46 | 1267 | 1.132
298.15 K, x1 = 0.8662 | 1045.68 | 1264 | 0.956
298.15 K, x1 = 0.9331 | 1072.02 | 1264 | 0.841
298.15 K, x1 = 1 | 1100.97 | 1268 | 0.757
303.15 K, x1 = 0.1423 | 844.912 | 1317.5 | 4.64
303.15 K, x1 = 0.2807 | 873.625 | 1303.4 | 3.352
303.15 K, x1 = 0.4121 | 903.886 | 1289.6 | 2.455
303.15 K, x1 = 0.5237 | 932.283 | 1277.8 | 1.89
303.15 K, x1 = 0.6158 | 957.91 | 1268.6 | 1.528
303.15 K, x1 = 0.7073 | 985.68 | 1260 | 1.243
303.15 K, x1 = 0.7885 | 1012.47 | 1253.4 | 1.04
303.15 K, x1 = 0.8662 | 1040.47 | 1248.7 | 0.885
303.15 K, x1 = 0.9331 | 1066.6 | 1247.5 | 0.782
303.15 K, x1 = 1 | 1095.1 | 1249.4 | 0.714
308.15 K, x1 = 0.1423 | 841.161 | 1302.6 | 3.981
308.15 K, x1 = 0.2807 | 869.616 | 1289.5 | 2.919
308.15 K, x1 = 0.4121 | 899.625 | 1276 | 2.174
308.15 K, x1 = 0.5237 | 927.793 | 1263.8 | 1.678
308.15 K, x1 = 0.6158 | 953.186 | 1254.6 | 1.366
308.15 K, x1 = 0.7073 | 980.694 | 1245.7 | 1.119
308.15 K, x1 = 0.7885 | 1007.21 | 1238.7 | 0.956
308.15 K, x1 = 0.8662 | 1034.92 | 1233.4 | 0.833
308.15 K, x1 = 0.9331 | 1060.82 | 1230.9 | 0.752
308.15 K, x1 = 1 | 1089.08 | 1230.9 | 0.677
313.15 K, x1 = 0.1423 | 836.375 | 1285.8 | 3.436
313.15 K, x1 = 0.2807 | 864.727 | 1273.2 | 2.562
313.15 K, x1 = 0.4121 | 894.659 | 1260.3 | 1.934
313.15 K, x1 = 0.5237 | 922.757 | 1248.9 | 1.528
313.15 K, x1 = 0.6158 | 948.078 | 1239.6 | 1.267
313.15 K, x1 = 0.7073 | 975.5 | 1230.7 | 1.037
313.15 K, x1 = 0.7885 | 1001.95 | 1223.5 | 0.891
313.15 K, x1 = 0.8662 | 1029.57 | 1217.8 | 0.76
313.15 K, x1 = 0.9331 | 1055.42 | 1214.3 | 0.681
313.15 K, x1 = 1 | 1083.66 | 1212.6 | 0.617

Clc1ccccc1 [chlorobenzene] + CCCCCCCO
Conditions | mass density [kg/m3] | speed of sound [m/s] | viscosity [mPa·s]
298.15 K, x1 = 0.1306 | 846.348 | 1316.7 | 4.469
298.15 K, x1 = 0.2566 | 874.819 | 1305.5 | 3.335
298.15 K, x1 = 0.3866 | 906.448 | 1293.8 | 2.453
298.15 K, x1 = 0.4947 | 934.739 | 1284 | 1.911
298.15 K, x1 = 0.5878 | 960.727 | 1276 | 1.557
298.15 K, x1 = 0.6827 | 988.992 | 1269.1 | 1.273
298.15 K, x1 = 0.7682 | 1016.23 | 1264.6 | 1.073
298.15 K, x1 = 0.8521 | 1044.88 | 1262.7 | 0.918
298.15 K, x1 = 0.9255 | 1071.67 | 1263.8 | 0.817
298.15 K, x1 = 1 | 1100.97 | 1268 | 0.757
303.15 K, x1 = 0.1306 | 842.689 | 1300 | 3.832
303.15 K, x1 = 0.2566 | 870.964 | 1289 | 2.896
303.15 K, x1 = 0.3866 | 902.362 | 1277.6 | 2.164
303.15 K, x1 = 0.4947 | 930.425 | 1268.2 | 1.709
303.15 K, x1 = 0.5878 | 956.224 | 1260.7 | 1.406
303.15 K, x1 = 0.6827 | 984.268 | 1253.8 | 1.16
303.15 K, x1 = 0.7682 | 1011.3 | 1248.7 | 0.984
303.15 K, x1 = 0.8521 | 1039.69 | 1245.4 | 0.85
303.15 K, x1 = 0.9255 | 1066.23 | 1245.5 | 0.764
303.15 K, x1 = 1 | 1095.1 | 1249.4 | 0.714
308.15 K, x1 = 0.1306 | 838.9 | 1283.3 | 3.311
308.15 K, x1 = 0.2566 | 866.926 | 1272.1 | 2.532
308.15 K, x1 = 0.3866 | 898.052 | 1260.4 | 1.922
308.15 K, x1 = 0.4947 | 925.892 | 1250.2 | 1.543
308.15 K, x1 = 0.5878 | 951.47 | 1242 | 1.283
308.15 K, x1 = 0.6827 | 979.252 | 1235 | 1.059
308.15 K, x1 = 0.7682 | 1006.02 | 1230.1 | 0.915
308.15 K, x1 = 0.8521 | 1034.12 | 1227.6 | 0.816
308.15 K, x1 = 0.9255 | 1060.42 | 1228 | 0.733
308.15 K, x1 = 1 | 1089.08 | 1230.9 | 0.677
313.15 K, x1 = 0.1306 | 835.146 | 1266.5 | 2.872
313.15 K, x1 = 0.2566 | 862.967 | 1255.6 | 2.219
313.15 K, x1 = 0.3866 | 893.905 | 1243.8 | 1.705
313.15 K, x1 = 0.4947 | 921.55 | 1233.6 | 1.378
313.15 K, x1 = 0.5878 | 946.95 | 1225.3 | 1.135
313.15 K, x1 = 0.6827 | 974.575 | 1217.9 | 0.953
313.15 K, x1 = 0.7682 | 1001.13 | 1212.9 | 0.822
313.15 K, x1 = 0.8521 | 1029.02 | 1209.9 | 0.723
313.15 K, x1 = 0.9255 | 1055.08 | 1209.7 | 0.662
313.15 K, x1 = 1 | 1083.66 | 1212.6 | 0.617
